From patent US11771709B2, “ALK protein degradation agent and anti-tumor application thereof” (ShanghaiTech University, priority 2017, dated 2023)

How the values were obtained:
Type in all cases: cell-based
SR (NPM-ALK) cells = assay: Growth inhibition IC50 in ALCL SR cells (CCK8/WST, 72 hours); settings: 72 h, SR cells, WST; Brigatinib-based PROTAD molecules (Table 3)
[1] = target: T1, ALK protein in SR (NPM-ALK) cells (Homo sapiens, UniProt Q9UM73); assay: Western blot of ALK protein level (degradation, DC50), ALK phosphorylation and downstream signaling in SR cells; settings: ALK protein degradation in SR cells
T1 construct: NPM (nucleophosmin, NPM1, P06748) fusion partner; host or cells: SR (ALCL) cells; the other entry of the earlier key: NPM1 (P06748, Nucleophosmin)

[2] = target: T2, ALK protein in H3122 (EML4-ALK) cells (Homo sapiens, UniProt Q9UM73); assay: Western blot of ALK protein level (degradation, DC50), ALK phosphorylation and downstream signaling in H3122 cells; settings: ALK protein degradation in H3122 cells
T2 construct: EML4 (Echinoderm microtubule-associated protein-like 4, Q9HC35) fusion partner, variant 1; host or cells: NCI-H3122 lung adenocarcinoma cells; the other entry of the earlier key: EML4 (Q9HC35, Echinoderm microtubule-associated protein-like 4)
T2 sequence (Q9UM73 with tags, fused parts or gaps): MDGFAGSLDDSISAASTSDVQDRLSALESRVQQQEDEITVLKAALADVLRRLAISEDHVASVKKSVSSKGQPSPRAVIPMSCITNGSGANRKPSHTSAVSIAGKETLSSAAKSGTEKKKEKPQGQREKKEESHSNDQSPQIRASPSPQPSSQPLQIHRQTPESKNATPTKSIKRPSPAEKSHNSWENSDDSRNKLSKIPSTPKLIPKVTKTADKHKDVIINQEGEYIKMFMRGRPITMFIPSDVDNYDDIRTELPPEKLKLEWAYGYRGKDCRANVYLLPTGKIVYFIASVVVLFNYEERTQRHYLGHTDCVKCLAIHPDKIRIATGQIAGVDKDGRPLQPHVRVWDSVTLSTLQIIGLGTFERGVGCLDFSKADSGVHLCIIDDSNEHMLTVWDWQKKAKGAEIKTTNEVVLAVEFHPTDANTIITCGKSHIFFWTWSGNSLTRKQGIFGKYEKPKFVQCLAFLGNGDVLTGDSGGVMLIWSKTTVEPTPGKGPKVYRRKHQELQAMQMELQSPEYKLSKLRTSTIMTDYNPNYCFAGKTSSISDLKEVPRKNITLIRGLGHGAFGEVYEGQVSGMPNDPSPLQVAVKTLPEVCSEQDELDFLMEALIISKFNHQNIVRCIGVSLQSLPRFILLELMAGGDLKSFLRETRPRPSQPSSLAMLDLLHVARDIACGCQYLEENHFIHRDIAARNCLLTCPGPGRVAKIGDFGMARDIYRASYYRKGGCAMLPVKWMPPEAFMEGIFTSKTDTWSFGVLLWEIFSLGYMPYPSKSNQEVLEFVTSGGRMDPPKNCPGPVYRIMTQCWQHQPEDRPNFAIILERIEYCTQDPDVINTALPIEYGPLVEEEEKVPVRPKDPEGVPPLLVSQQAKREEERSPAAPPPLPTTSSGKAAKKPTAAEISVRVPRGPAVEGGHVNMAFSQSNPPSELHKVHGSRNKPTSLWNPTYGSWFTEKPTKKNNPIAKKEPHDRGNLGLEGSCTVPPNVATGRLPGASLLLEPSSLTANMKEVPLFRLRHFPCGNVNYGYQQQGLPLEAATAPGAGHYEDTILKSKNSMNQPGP

T1 sequence (Q9UM73 with tags, fused parts or gaps): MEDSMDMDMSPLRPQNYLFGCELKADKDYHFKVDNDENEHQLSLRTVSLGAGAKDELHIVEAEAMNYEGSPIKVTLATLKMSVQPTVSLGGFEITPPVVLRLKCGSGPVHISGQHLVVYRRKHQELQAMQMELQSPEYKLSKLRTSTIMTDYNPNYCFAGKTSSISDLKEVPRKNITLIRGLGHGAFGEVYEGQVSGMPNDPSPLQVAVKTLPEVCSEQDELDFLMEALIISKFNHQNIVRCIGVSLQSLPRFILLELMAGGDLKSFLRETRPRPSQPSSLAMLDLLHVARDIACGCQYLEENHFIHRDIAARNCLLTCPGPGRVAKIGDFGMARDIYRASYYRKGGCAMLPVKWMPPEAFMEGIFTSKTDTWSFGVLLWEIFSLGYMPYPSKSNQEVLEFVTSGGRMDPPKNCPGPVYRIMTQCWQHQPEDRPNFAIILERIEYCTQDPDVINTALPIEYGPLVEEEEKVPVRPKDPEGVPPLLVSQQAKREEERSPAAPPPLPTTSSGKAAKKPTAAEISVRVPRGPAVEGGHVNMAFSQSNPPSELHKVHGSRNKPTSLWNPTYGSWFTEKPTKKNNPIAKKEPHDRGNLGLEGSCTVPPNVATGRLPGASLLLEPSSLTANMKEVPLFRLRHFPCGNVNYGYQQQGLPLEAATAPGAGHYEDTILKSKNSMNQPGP

Row | SMILES | DC50 [1] | DC50 [2] | IC50 (SR (NPM-ALK) cells)
1 | COc1cc(N2CCC(N3CCN(C(=O)CCOCCOCCOCCOCCC(=O)N[C@H](C(=O)N4C[C@H](O)C[C@H]4C(=O)NCc4ccc(-c5scnc5C)cc4)C(C)(C)C)CC3)CC2)ccc1Nc1ncc(Cl)c(Nc2ccccc2P(C)(C)=O)n1 [SIAIS164034, (2S,4R)-1-((S)-2-(tert-butyl)-19-(4-(1-(4-((5-chloro-4-((2-(dimethylphosphoryl)phenyl)amino)pyrimidin-2-yl)amino)-3-methoxyphenyl)piperidin-4-yl)piperazin-1-yl)-4,19-dioxo-7,10,13,16-tetraoxa-3-azanonadecanoyl)-4-hydroxy-N-(4-(4-methylthiazol-5-yl)benzyl)pyrrolidine-2-carboxamide] | 100 to 500 nM | 100 to 500 nM | 88.6 ± 63 nM
2 | COc1cc(N2CCC(N3CCN(C(=O)CCOCCOCCOCCOCCOCCC(=O)N[C@H](C(=O)N4C[C@H](O)C[C@H]4C(=O)NCc4ccc(-c5scnc5C)cc4)C(C)(C)C)CC3)CC2)ccc1Nc1ncc(Cl)c(Nc2ccccc2P(C)(C)=O)n1 [SIAIS164035, (2S,4R)-1-((S)-2-(tert-butyl)-22-(4-(1-(4-((5-chloro-4-((2-(dimethylphosphoryl)phenyl)amino)pyrimidin-2-yl)amino)-3-methoxyphenyl)piperidin-4-yl)piperazin-1-yl)-4,22-dioxo-7,10,13,16,19-pentaoxa-3-azadocosanoyl)-4-hydroxy-N-(4-(4-methylthiazol-5-yl)benzyl)pyrrolidine-2-carboxamide] | 100 to 500 nM | 100 to 500 nM | 41.8 ± 24.7 nM
3 | COc1cc(N2CCC(N3CCN(C(=O)COCCOCC(=O)N[C@H](C(=O)N4C[C@H](O)C[C@H]4C(=O)NCc4ccc(-c5scnc5C)cc4)C(C)(C)C)CC3)CC2)ccc1Nc1ncc(Cl)c(Nc2ccccc2P(C)(C)=O)n1 [SIAIS164041, (2S,4R)-1-((S)-2-(2-(2-(2-(4-(1-(4-((5-chloro-4-((2-(dimethylphosphoryl)phenyl)amino)pyrimidin-2-yl)amino)-3-methoxyphenyl)piperidin-4-yl)piperazin-1-yl)-2-oxoethoxy)ethoxy)acetamido)-3,3-dimethylbutanoyl)-4-hydroxy-N-(4-(4-methylthiazol-5-yl)benzyl)pyrrolidine-2-carboxamide] | 10 to 50 nM | 10 to 500 nM | 42.7 ± 29.4 nM
4 | COc1cc(N2CCC(N3CCN(C(=O)CCCCC(=O)N[C@H](C(=O)N4C[C@H](O)C[C@H]4C(=O)NCc4ccc(-c5scnc5C)cc4)C(C)(C)C)CC3)CC2)ccc1Nc1ncc(Cl)c(Nc2ccccc2P(C)(C)=O)n1 [SIAIS164122, (2S,4R)-1-((S)-2-(6-(4-(1-(4-((5-chloro-4-((2-(dimethylphosphoryl)phenyl)amino)pyrimidin-2-yl)amino)-3-methoxyphenyl)piperidin-4-yl)piperazin-1-yl)-6-oxohexanamido)-3,3-dimethylbutanoyl)-4-hydroxy-N-(4-(4-methylthiazol-5-yl)benzyl)pyrrolidine-2-carboxamide] | 1 to 50 nM | 50 to 100 nM | 12.1 ± 9.2 nM
5 | COc1cc(N2CCC(N3CCN(C(=O)CCCCCC(=O)N[C@H](C(=O)N4C[C@H](O)C[C@H]4C(=O)NCc4ccc(-c5scnc5C)cc4)C(C)(C)C)CC3)CC2)ccc1Nc1ncc(Cl)c(Nc2ccccc2P(C)(C)=O)n1 [SIAIS164123, (2S,4R)-1-((S)-2-(7-(4-(1-(4-((5-chloro-4-((2-(dimethylphosphoryl)phenyl)amino)pyrimidin-2-yl)amino)-3-methoxyphenyl)piperidin-4-yl)piperazin-1-yl)-7-oxoheptanamido)-3,3-dimethylbutanoyl)-4-hydroxy-N-(4-(4-methylthiazol-5-yl)benzyl)pyrrolidine-2-carboxamide] | 1 to 50 nM | 10 to 50 nM | 11.4 ± 8.1 nM
6 | COc1cc(N2CCC(NC(=O)CCCC(=O)N[C@H](C(=O)N3C[C@H](O)C[C@H]3C(=O)NCc3ccc(-c4scnc4C)cc3)C(C)(C)C)CC2)ccc1Nc1ncc(Cl)c(Nc2ccccc2P(C)(C)=O)n1 [SIAIS164144, N1-(1-(4-((5-chloro-4-((2-(dimethylphosphoryl)phenyl)amino)pyrimidin-2-yl)amino)-3-methoxyphenyl)piperidin-4-yl)-N5-((S)-1-((2S,4R)-4-hydroxy-2-((4-(4-methylthiazol-5-yl)benzyl)carbamoyl)pyrrolidin-1-yl)-3,3-dimethyl-1-oxobutan-2-yl)glutaramide] | 1 to 10 nM | 20 to 100 nM | 13.6 ± 9.1 nM
7 | COc1cc(N2CCC(NC(=O)CCCCC(=O)N[C@H](C(=O)N3C[C@H](O)C[C@H]3C(=O)NCc3ccc(-c4scnc4C)cc3)C(C)(C)C)CC2)ccc1Nc1ncc(Cl)c(Nc2ccccc2P(C)(C)=O)n1 [SIAIS164145, N1-(1-(4-((5-chloro-4-((2-(dimethylphosphoryl)phenyl)amino)pyrimidin-2-yl)amino)-3-methoxyphenyl)piperidin-4-yl)-N6-((S)-1-((2S,4R)-4-hydroxy-2-((4-(4-methylthiazol-5-yl)benzyl)carbamoyl)pyrrolidin-1-yl)-3,3-dimethyl-1-oxobutan-2-yl)adipamide] | 1 to 10 nM | 50 to 100 nM | 10.3 ± 6.3 nM

More lines, main results first:

Row | DC50 [1] | DC50 [2] | SMILES | IC50 (SR (NPM-ALK) cells)
8 | 1 to 10 nM | 10 to 100 nM | COc1cc(N2CCC(N3CCN(C(=O)CCC(=O)N[C@H](C(=O)N4C[C@H](O)C[C@H]4C(=O)NCc4ccc(-c5scnc5C)cc4)C(C)(C)C)CC3)CC2)ccc1Nc1ncc(Cl)c(Nc2ccccc2P(C)(C)=O)n1 [SIAIS164120, (2S,4R)-1-((S)-2-(4-(4-(1-(4-((5-chloro-4-((2-(dimethylphosphoryl)phenyl)amino)pyrimidin-2-yl)amino)-3-methoxyphenyl)piperidin-4-yl)piperazin-1-yl)-4-oxobutanamido)-3,3-dimethylbutanoyl)-4-hydroxy-N-(4-(4-methylthiazol-5-yl)benzyl)pyrrolidine-2-carboxamide] | 19.2 ± 8.8 nM
9 | 1 to 10 nM | 50 to 100 nM | COc1cc(N2CCC(N3CCN(C(=O)CCCC(=O)N[C@H](C(=O)N4C[C@H](O)C[C@H]4C(=O)NCc4ccc(-c5scnc5C)cc4)C(C)(C)C)CC3)CC2)ccc1Nc1ncc(Cl)c(Nc2ccccc2P(C)(C)=O)n1 [SIAIS164121, (2S,4R)-1-((S)-2-(5-(4-(1-(4-((5-chloro-4-((2-(dimethylphosphoryl)phenyl)amino)pyrimidin-2-yl)amino)-3-methoxyphenyl)piperidin-4-yl)piperazin-1-yl)-5-oxopentanamido)-3,3-dimethylbutanoyl)-4-hydroxy-N-(4-(4-methylthiazol-5-yl)benzyl)pyrrolidine-2-carboxamide] | 21.6 ± 12.5 nM
10 | 1 to 10 nM | 100 to 500 nM | COc1cc(N2CCC(N3CCN(C(=O)CCCCCCC(=O)N[C@H](C(=O)N4C[C@H](O)C[C@H]4C(=O)NCc4ccc(-c5scnc5C)cc4)C(C)(C)C)CC3)CC2)ccc1Nc1ncc(Cl)c(Nc2ccccc2P(C)(C)=O)n1 [SIAIS164124, (2S,4R)-1-((S)-2-(8-(4-(-(4-((5-chloro-4-((2-(dimethylphosphoryl)phenyl)amino)pyrimidin-2-yl)amino)-3-methoxyphenyl)piperidin-4-yl)piperazin-1-yl)-8-oxooctanamido)-3,3-dimethylbutanoyl)-4-hydroxy-N-(4-(4-methylthiazol-5-yl)benzyl)pyrrolidine-2-carboxamide] | 9.5 ± 8.1 nM
11 | 1 to 10 nM | 10 to 50 nM | COc1cc(N2CCC(N3CCN(C(=O)CCCCCCCC(=O)N[C@H](C(=O)N4C[C@H](O)C[C@H]4C(=O)NCc4ccc(-c5scnc5C)cc4)C(C)(C)C)CC3)CC2)ccc1Nc1ncc(Cl)c(Nc2ccccc2P(C)(C)=O)n1 [SIAIS164125, (2S,4R)-1-((S)-2-(9-(4-(1-(4-((5-chloro-4-((2-(dimethylphosphoryl)phenyl)amino)pyrimidin-2-yl)amino)-3-methoxyphenyl)piperidin-4-yl)piperazin-1-yl)-9-oxononanamido)-3,3-dimethylbutanoyl)-4-hydroxy-N-(4-(4-methylthiazol-5-yl)benzyl)pyrrolidine-2-carboxamide] | 9 ± 5.7 nM
12 | 1 to 10 nM | 10 to 50 nM | COc1cc(N2CCC(N3CCN(C(=O)CCCCCCCCC(=O)N[C@H](C(=O)N4C[C@H](O)C[C@H]4C(=O)NCc4ccc(-c5scnc5C)cc4)C(C)(C)C)CC3)CC2)ccc1Nc1ncc(Cl)c(Nc2ccccc2P(C)(C)=O)n1 [SIAIS164126, (2S,4R)-1-((S)-2-(10-(4-(1-(4-((5-chloro-4-((2-(dimethylphosphoryl)phenyl)amino)pyrimidin-2-yl)amino)-3-methoxyphenyl)piperidin-4-yl)piperazin-1-yl)-10-oxodecanamido)-3,3-dimethylbutanoyl)-4-hydroxy-N-(4-(4-methylthiazol-5-yl)benzyl)pyrrolidine-2-carboxamide] | 8 ± 6.7 nM
13 | 1 to 10 nM | 50 to 100 nM | COc1cc(N2CCC(NC(=O)CCC(=O)N[C@H](C(=O)N3C[C@H](O)C[C@H]3C(=O)NCc3ccc(-c4scnc4C)cc3)C(C)(C)C)CC2)ccc1Nc1ncc(Cl)c(Nc2ccccc2P(C)(C)=O)n1 [SIAIS164143, N1-(1-(4-((5-chloro-4-((2-(dimethylphosphoryl)phenyl)amino)pyrimidin-2-yl)amino)-3-methoxyphenyl)piperidin-4-yl)-N4-((S)-1-((2S,4R)-4-hydroxy-2-((4-(4-methylthiazol-5-yl)benzyl)carbamoyl)pyrrolidin-1-yl)-3,3-dimethyl-1-oxobutan-2-yl) succinamide] | 11.7 ± 4.2 nM
